The source of these data is patent publication US11746085B2, “Triphenylsulfonium salt compound, and uses thereof” (Changzhou Tronly Advanced Electronic Materials Co., Ltd., priority 2018, dated 2023).

The structures appear in SMILES notation.

The nature of one series: Dissolution performance test: solubility in 3-ethyl-3-hydroxymethyl oxetane monomer. It counts as physicochemical. To be noted: Table 3; maximum number of grams dissolved in 100 g 3-ethyl-3-hydroxymethyl oxetane monomer at 20° C. The procedure: The solubility in 3-ethyl-3-hydroxymethyl oxetane monomer was tested for Compound A-1 to A-38 and C-1 to C-25, and comparative compounds B-1 and B-2 as well as D-1 and D-2 in the present invention, calculated based on the maximum number of grams dissolved in 100 g solvent at 20° C.
Compound `CC(=O)c1ccc([S+](c2ccccc2)c2ccc(C)c(C#N)c2)cc1` (centres unmarked) [Compound A-7] displayed a Solubility of 20.6 g.

On to `Cc1ccc([S+](c2ccccc2)c2ccc(-c3ccccc3)cc2)cc1F` (centres unmarked) [Compound A-21], for which the Solubility was 20.1 g.

In turn, `Cc1ccc([S+](c2ccccc2)c2ccc(/C=C/c3ccccc3)cc2)cc1F` (centres unmarked) [Compound A-38] showed a Solubility of 23.5 g.

As to `COc1ccc([S+](c2ccc(Sc3ccccc3)cc2)c2ccc(OC)c(F)c2)cc1F` [Compound A-35], the Solubility was 24.8 g.

As to `Cc1ccc([S+](c2ccc(Sc3ccccc3)cc2)c2ccc(C)c([N+](=O)[O-])c2)cc1[N+](=O)[O-]` [Compound A-27], the Solubility came out at 22.3 g.

Take `CCc1ccc([S+](c2ccc(OC)cc2)c2ccc(CC)c(C(F)(F)F)c2)cc1C(F)(F)F` [Compound A-31]: the Solubility was 27.6 g.

Consider `COc1ccc([S+](c2ccc(C(C)=O)cc2)c2ccc(C(C)=O)cc2)cc1F` [Compound A-8], for which the Solubility was 23.4 g.

For the compound `Cc1ccc([S+](c2ccc(Oc3ccccc3)cc2)c2ccc(C)c(F)c2)cc1F` [Compound A-13], the Solubility is 23.8 g.

`Cc1ccc([SH](c2ccc(C)c(F)c2)c2ccc(C)c(F)c2)cc1F` [Compound A-10] returned a Solubility of 23.8 g.

`Fc1ccc([S+](c2ccccc2)c2ccccc2)cc1F` [Compound A-5] gave a Solubility of 19.1 g.

As for `Cc1ccc([S+](c2ccccc2)c2ccccc2)cc1C(F)(F)F` [Compound A-6], the Solubility is 19.2 g.

For `CCc1ccc([S+](c2ccc(OC)cc2)c2ccc(CC)c(F)c2)cc1F` [Compound A-28], the Solubility turned out to be 26.4 g.

Compound `Cc1ccc([S+](c2ccc(C)c(F)c2)c2ccc(C)c(F)c2)cc1` [Compound A-11] had a Solubility of 21.6 g.

The compound `Cc1ccc(-[s+]2c3ccccc3c(=O)c3cc(C(C)C)ccc32)cc1F` (centres unmarked) [Compound A-2] displayed a Solubility of 23.5 g.

Compound `COc1ccc([S+](c2ccc(C)c(F)c2)c2ccc(C)c(F)c2)cc1` [Compound A-1] registered a Solubility of 25.7 g.

With `Cc1ccc([S+](c2ccc(-c3ccccc3)cc2)c2ccc(C)c(F)c2)cc1F` [Compound A-15], the Solubility was 23.4 g.

In the case of `Cc1ccc([S+](c2ccc(/C=C/c3ccccc3)cc2)c2ccc(C)c(F)c2)cc1F` [Compound A-37], the Solubility was determined as 22.4 g.

Compound `Cc1ccc([S+](c2ccc(C)c(F)c2)c2ccc(C)c(F)c2)cc1` [Compound A-3] yielded a Solubility of 22.5 g.

Regarding `Fc1cc([S+](c2ccc(Sc3ccccc3)cc2)c2ccc(Cc3ccccc3)c(F)c2)ccc1Cc1ccccc1` [Compound A-36], the Solubility is 23.2 g.

`CCc1ccc([S+](c2ccc(OCCO)cc2)c2ccc(CC)c([N+](=O)[O-])c2)cc1[N+](=O)[O-]` [Compound A-32] returned a Solubility of 28.2 g.

`Cc1ccc([S+](c2ccc(Cc3ccccc3)cc2)c2ccc(C)c(F)c2)cc1F` [Compound A-14]: the Solubility is recorded as 23.5 g.

Turning to `CC(=O)c1cc([SH](c2ccc(Sc3ccccc3)cc2)c2ccc(C)c(C(C)=O)c2)ccc1C` [Compound A-16], the Solubility was 22.6 g.

Compound `Fc1cccc([S+](c2ccccc2)c2ccccc2)c1` [Compound B-1, reference compound] displayed a Solubility of 12.1 g.

With `Cc1ccc([S+](c2ccc(OCCO)cc2)c2ccc(C)c(F)c2)cc1F` [Compound A-9], the Solubility is 24.3 g.

For `Cc1ccc([S+](c2ccccc2)c2ccccc2)cc1` [Compound B-2, reference compound], the Solubility came to 20.6 g.

`Cc1ccc([S+](c2ccccc2)c2ccccc2)cc1F` [Compound A-4]: the Solubility is 19.5 g.

The compound `Cc1ccc([SH](c2ccc(Sc3ccc(C(=O)c4ccccc4)cc3)cc2)c2ccc(C)c(F)c2)cc1F` [Compound A-30] returned a Solubility of 27.8 g.

In turn, `Cc1ccc([S+](c2ccc(C)c(C#N)c2)c2ccc(C)c(C#N)c2)cc1C` [Compound A-18] came in with a Solubility of 23.2 g.

`Cc1ccc([S+](c2ccc(Sc3ccccc3)cc2)c2ccc(C)c(C(=O)Cl)c2)cc1C(=O)Cl` [Compound A-19]: the Solubility is given as 24.3 g.

Compound `Cc1ccc([S+](c2ccc(Sc3ccccc3)cc2)c2ccc(C)c(F)c2)cc1F` [Compound A-12] gave a Solubility of 24.5 g.

Compound `Cc1ccc([S+](c2ccc(C)c(F)c2)c2ccc3oc4ccccc4c3c2)cc1F` [Compound A-24] yielded a Solubility of 23.1 g.

Compound `Cc1ccc([S+](c2ccc(C)c(F)c2)c2ccc3c(c2)Cc2ccccc2-3)cc1F` [Compound A-22] yielded a Solubility of 22.3 g.

The same series, now with this note: Table 4; maximum number of grams dissolved in 100 g 3-ethyl-3-hydroxymethyl oxetane monomer at 20° C.
`Cc1ccc([S+](c2ccc(Sc3ccc([S+](c4ccc(C)c(C#N)c4)c4ccc(C)c(C#N)c4)cc3C)c(C)c2)c2ccc(C)c(C#N)c2)cc1C#N` [Compound C-13] displayed a Solubility of 24.9 g.

`Cc1ccc([S+](c2ccc(C)c(F)c2)c2ccc3c(c2)Cc2cc([S+](c4ccc(C)c(F)c4)c4ccc(C)c(F)c4)ccc2-3)cc1F` [Compound C-21] yielded a Solubility of 23.4 g.

Regarding `Cc1ccc([S+](c2ccc(-c3ccc([S+](c4ccc(C)c(C#N)c4)c4ccc(C)c(C#N)c4)cc3)cc2)c2ccc(C)c(C#N)c2)cc1C#N` [Compound C-11], the Solubility was 21.0 g.

For `Cc1ccc([S+](c2ccccc2)c2ccc(Sc3ccc([S+](c4ccccc4)c4ccc(C)c(C(F)(F)F)c4)cc3)cc2)cc1C(F)(F)F` (centres unmarked) [Compound C-20], the Solubility is 22.1 g.

Take `Cc1ccc([S+](c2ccc(-c3ccc([S+](c4ccc(C)c(F)c4)c4ccc(C)c(F)c4)cc3)cc2)c2ccc(C)c(F)c2)cc1F` [Compound C-10]: the Solubility was determined as 21.4 g.

In turn, `COc1ccc([S+](c2ccccc2)c2ccc(Sc3ccc([S+](c4ccccc4)c4ccc(OC)c(F)c4)cc3)cc2)cc1F` (centres unmarked) [Compound C-18] displayed a Solubility of 20.7 g.

The compound `Cc1ccc([S+](c2ccc(Sc3ccc([S+](c4ccc(C)c(C(F)(F)F)c4)c4ccc(C)c(C(F)(F)F)c4)cc3)cc2)c2ccc(C)c(C(F)(F)F)c2)cc1C(F)(F)F` [Compound C-2] gave a Solubility of 24.3 g.

Compound `Cc1ccc([S+](c2ccc(Sc3ccc([S+](c4ccc(C)c(F)c4)c4ccc(C)c(F)c4)cc3C)c(C)c2)c2ccc(C)c(F)c2)cc1F` [Compound C-12] had a Solubility of 25.3 g.

Compound `CCc1ccc([S+](c2ccc(Sc3ccc([S+](c4ccc(CC)c(C(F)(F)F)c4)c4ccc(CC)c(C(F)(F)F)c4)cc3)cc2)c2ccc(CC)c(C(F)(F)F)c2)cc1C(F)(F)F` [Compound C-6] gave a Solubility of 25.3 g.

Consider `Fc1cccc([S+](c2ccccc2)c2ccc(Sc3ccc([S+](c4ccccc4)c4cccc(F)c4)cc3)cc2)c1` [Compound D-1, reference compound], for which the Solubility is on record as 11.5 g.

On to `CCc1ccc([S+](c2ccc(Sc3ccc([S+](c4ccc(CC)c(F)c4)c4ccc(CC)c(F)c4)cc3)cc2)c2ccc(CC)c(F)c2)cc1F` [Compound C-5], for which the Solubility was determined as 25.1 g.

The compound `Cc1ccc([S+](c2ccc(Sc3ccc([S+](c4ccc(C)c(C#N)c4)c4ccc(C)c(C#N)c4)cc3)cc2)c2ccc(C)c(C#N)c2)cc1C#N` [Compound C-4] yielded a Solubility of 23.1 g.

`CCn1c2cc([SH](c3ccc(C)c(C(F)(F)F)c3)c3ccc(C)c(C(F)(F)F)c3)ccc2c2ccc([SH](c3ccc(C)c(C(F)(F)F)c3)c3ccc(C)c(C(F)(F)F)c3)cc21` [Compound C-25] displayed a Solubility of 22.8 g.

In turn, `Cc1ccc([SH](c2ccc(C)c(F)c2)c2ccc3c(c2)oc2cc([SH](c4ccc(C)c(F)c4)c4ccc(C)c(F)c4)ccc23)cc1F` [Compound C-23] returned a Solubility of 23.6 g.

Take `Cc1ccc([S+](c2ccccc2)c2ccc(Sc3ccc([S+](c4ccccc4)c4ccc(C)cc4)cc3)cc2)cc1` [Compound D-2, reference compound]: the Solubility is reported as 19.3 g.

`Cc1ccc([S+](c2ccc(Sc3ccc([S+](c4ccc(C)c(F)c4)c4ccc(C)c(F)c4)cc3)cc2)c2ccc(C)c(F)c2)cc1F` [Compound C-1] displayed a Solubility of 24.4 g.

The compound `CCCCC1(CCCC)c2cc([S+](c3ccc(C)c(F)c3)c3ccc(C)c(F)c3)ccc2-c2ccc([S+](c3ccc(C)c(F)c3)c3ccc(C)c(F)c3)cc21` [Compound C-22] returned a Solubility of 24.5 g.

In turn, `CC(C)c1ccc([S+](c2ccc(-c3ccc([S+](c4ccc(C(C)C)c(F)c4)c4ccc(C(C)C)c(F)c4)cc3)cc2)c2ccc(C(C)C)c(F)c2)cc1F` [Compound C-19] showed a Solubility of 24.8 g.

In turn, `Cc1ccc([S+](c2ccc(Oc3ccc([S+](c4ccc(C)c(F)c4)c4ccc(C)c(F)c4)cc3)cc2)c2ccc(C)c(F)c2)cc1F` [Compound C-8] registered a Solubility of 23.7 g.

`Fc1cc([S+](c2ccc(Sc3ccc([S+](c4ccc(Cc5ccccc5)c(F)c4)c4ccc(Cc5ccccc5)c(F)c4)cc3)cc2)c2ccc(Cc3ccccc3)c(F)c2)ccc1Cc1ccccc1` [Compound C-16] gave a Solubility of 24.4 g.

For `Cc1ccc([S+](c2ccc(C)c(F)c2)c2ccc3c(c2)sc2cc([S+](c4ccc(C)c(F)c4)c4ccc(C)c(F)c4)ccc23)cc1F` [Compound C-24], the Solubility is listed as 23.5 g.

With `Cc1ccc([S+](c2ccc(/C=C/c3ccc([S+](c4ccc(C)c(F)c4)c4ccc(C)c(F)c4)cc3)cc2)c2ccc(C)c(F)c2)cc1F` [Compound C-7], the Solubility stood at 22.4 g.

In turn, `Cc1ccc([S+](c2ccc(Sc3ccc([S+](c4ccc(C)c([N+](=O)[O-])c4)c4ccc(C)c([N+](=O)[O-])c4)cc3)cc2)c2ccc(C)c([N+](=O)[O-])c2)cc1[N+](=O)[O-]` [Compound C-3] yielded a Solubility of 23.4 g.

As for `Cc1ccc([S+](c2ccc(Cc3ccc([S+](c4ccc(C)c([N+](=O)[O-])c4)c4ccc(C)c([N+](=O)[O-])c4)cc3)cc2)c2ccc(C)c([N+](=O)[O-])c2)cc1[N+](=O)[O-]` [Compound C-9], the Solubility came out at 23.1 g.
